Reference: ChEMBL document CHEMBL4417631, “Oral peptide inhibitors of interleukin-23 receptor and their use to treat inflammatory bowel diseases” (2017)
Where a SMILES comes first, the peptide text is derived from it.

Target: T1, Interleukin-23 receptor (Homo sapiens, UniProt Q5VWK5)
T1 sequence (Q5VWK5 whole entry): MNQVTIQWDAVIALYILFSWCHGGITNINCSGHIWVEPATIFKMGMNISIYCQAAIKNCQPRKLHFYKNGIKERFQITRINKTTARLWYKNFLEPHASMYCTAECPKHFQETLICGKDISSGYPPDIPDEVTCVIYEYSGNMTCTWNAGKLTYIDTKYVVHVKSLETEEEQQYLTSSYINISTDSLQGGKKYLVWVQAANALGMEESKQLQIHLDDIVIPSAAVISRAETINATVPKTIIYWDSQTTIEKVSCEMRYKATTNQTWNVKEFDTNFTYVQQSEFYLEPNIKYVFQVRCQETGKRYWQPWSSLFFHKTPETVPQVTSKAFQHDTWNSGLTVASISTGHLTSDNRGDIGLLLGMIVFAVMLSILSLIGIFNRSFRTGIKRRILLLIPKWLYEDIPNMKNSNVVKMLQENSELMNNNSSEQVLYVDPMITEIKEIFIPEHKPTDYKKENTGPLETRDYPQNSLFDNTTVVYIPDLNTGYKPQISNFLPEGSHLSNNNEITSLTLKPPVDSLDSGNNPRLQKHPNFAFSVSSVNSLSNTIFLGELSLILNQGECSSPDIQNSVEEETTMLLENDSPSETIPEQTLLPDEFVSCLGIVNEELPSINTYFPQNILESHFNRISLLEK
Test: Inhibition of interleukin-23 binding to human interleukin-23 receptor incubated for 2 hrs by competitive binding ELISA

Compound | IC50 [µM]
CC(=O)N[C@@H](CC(=O)O)C(=O)N[C@H](C(=O)N1CCC[C@H]1C(=O)N[C@@H](CCCNC(=N)N)C(=O)N[C@@H](CS)C(=O)N[C@@H](CCCNC(=N)N)C(=O)N[C@H](C(=O)N[C@@H](Cc1c[nH]c2ccccc12)C(=O)N[C@@H](CCC(=O)O)C(=O)N[C@@H](CS)C(=O)N[C@@H](Cc1ccc(O)cc1)C(=O)N[C@@H](Cc1c[nH]c2ccccc12)C(=O)N[C@@H](Cc1cnc[nH]1)C(=O)N[C@H](C(=O)N[C@@H](Cc1ccccc1)C(=O)NCC(N)=O)[C@@H](C)O)[C@@H](C)O)[C@@H](C)O | 0.5 to 1
CC(=O)NC1CCC/C=C\CCC(C(=O)N[C@@H](Cc2ccc(O)cc2)C(=O)N[C@@H](Cc2c[nH]c3ccccc23)C(=O)N[C@@H](CCCNC(=N)N)C(=O)N[C@@H](CCCCN)C(=O)N[C@@H](Cc2ccccc2)C(=O)NCC(=O)NCCOCC(=O)N[C@H](CCCCN)C(N)=O)NC(=O)[C@H](CCC(N)=O)NC(=O)[C@H](Cc2c[nH]c3ccccc23)NC(=O)[C@H]([C@@H](C)O)NC(=O)[C@H](CCCNC(=N)N)NC1=O (stereo not given in full) | 1 to 10
CC(=O)N[C@@H](CS)C(=O)N[C@@H](C)C(=O)N[C@@H](CC(=O)O)C(=O)N[C@@H](Cc1c[nH]c2ccccc12)C(=O)N[C@H](C(=O)N[C@@H](CS)C(=O)N[C@@H](Cc1ccc(O)cc1)C(=O)N[C@@H](Cc1ccc(-c2ccccc2)cc1)C(=O)N[C@@H](CCCN)C(=O)N[C@@H](CN)C(=O)N[C@@H](Cc1ccccc1)C(=O)NCC(=O)NCCOCC(=O)N[C@H](CCCCN)C(N)=O)C(C)C | > 30
CC(=O)N[C@@H](CS)C(=O)N[C@@H](CCC(N)=O)C(=O)N[C@H](C(=O)N[C@@H](Cc1c[nH]c2ccccc12)C(=O)N[C@@H](CCC(N)=O)C(=O)N[C@@H](CS)C(=O)N[C@@H](Cc1ccc(O)cc1)C(=O)N1Cc2ccccc2C[C@H]1CC(=O)N[C@@H](CCCNC(=N)N)C(=O)N[C@H](C(=O)N[C@@H](CC(N)=O)C(=O)NCC(=O)NCCOCC(=O)N[C@H](CCCCN)C(N)=O)C(C)C)[C@@H](C)O | > 30
CC(=O)N[C@@H](CS)C(=O)N[C@@H](CCC(N)=O)C(=O)N[C@H](C(=O)N[C@@H](Cc1c[nH]c2ccccc12)C(=O)N[C@@H](CCC(N)=O)C(=O)N[C@@H](CS)C(=O)N[C@@H](Cc1ccc(O)cc1)C(=O)N[C@@](C)(Cc1ccccc1)C(=O)N[C@@H](CCC(C)C)C(=O)N[C@@H](CCC(=O)O)C(=O)N[C@@H](CC(N)=O)C(=O)NCC(N)=O)[C@@H](C)O | 30
CC(=O)N[C@@H](CS)C(=O)N[C@@H](C)C(=O)N[C@@H](CC(=O)O)C(=O)N[C@@H](Cc1c[nH]c2ccccc12)C(=O)N[C@H](C(=O)N[C@@H](CS)C(=O)N[C@@H](Cc1ccc(O)cc1)C(=O)N[C@@H](Cc1c[nH]c2ccccc12)C(=O)N[C@@H](Cc1cnc[nH]1)C(=O)N[C@@H](CCC(=O)O)C(=O)N[C@@H](Cc1ccccc1)C(=O)NCC(N)=O)C(C)C | 0.5 to 1
CC(C)[C@H](NC(=O)[C@H](Cc1cnc[nH]1)NC(=O)[C@H](Cc1c[nH]c2ccccc12)NC(=O)[C@H](Cc1ccc(O)cc1)NC(=O)[C@H](CS)NC(=O)[C@@H](NC(=O)[C@H](Cc1c[nH]c2ccccc12)NC(=O)[C@@H](NC(=O)[C@H](CCCNC(=N)N)NC(=O)[C@@H](N)CS)[C@@H](C)O)C(C)C)C(=O)N[C@@H](Cc1ccccc1)C(=O)NCC(N)=O (H-CRTWVCYWHVFG-NH2) | > 1
CCCCCCCCCCCCCCCC(=O)NCCCC[C@H](NC(=O)[C@H](CCCN)NC(=O)[C@H](Cc1c[nH]c2ccccc12)NC(=O)[C@H](Cc1ccc(O)cc1)NC(=O)[C@H](CS)NC(=O)[C@H](CCC(N)=O)NC(=O)[C@H](Cc1c[nH]c2ccccc12)NC(=O)[C@@H](NC(=O)[C@H](CCC(N)=O)NC(=O)[C@H](CS)NC(C)=O)[C@@H](C)O)C(=O)N[C@@H](CC(N)=O)C(=O)NCC(N)=O | > 6
CC(=O)N[C@@H](CS)C(=O)N[C@@H](C)C(=O)N[C@@H](CC(=O)O)C(=O)N[C@@H](Cc1c[nH]c2ccccc12)C(=O)N[C@H](C(=O)N[C@@H](CS)C(=O)N[C@@H](Cc1ccc(O)cc1)C(=O)N[C@@](C)(Cc1ccc(F)cc1)C(=O)N[C@@H](CCCN)C(=O)N[C@@H](CN)C(=O)N[C@@H](Cc1ccccc1)C(=O)NCC(=O)NCCOCC(=O)N[C@H](CCCCN)C(N)=O)C(C)C | > 30
CC(C)[C@H](NC(=O)[C@H](Cc1c[nH]c2ccccc12)NC(=O)[C@H](CC(=O)O)NC(=O)[C@@H](NC(=O)[C@@H](N)CS)[C@@H](C)O)C(=O)N[C@@H](CS)C(=O)N[C@@H](Cc1ccc(O)cc1)C(=O)N[C@@H](Cc1c[nH]c2ccccc12)C(=O)N[C@@H](Cc1cnc[nH]1)C(=O)N[C@@H](CCC(=O)O)C(=O)N[C@@H](Cc1ccc(O)cc1)C(=O)N[C@@H](CO)C(N)=O (H-CTDWVCYWHEYS-NH2) | > 1
CC(=O)N[C@@H](CS)C(=O)N[C@@H](CCC(N)=O)C(=O)N[C@H](C(=O)N[C@@H](Cc1c[nH]c2ccccc12)C(=O)N[C@@H](CCC(N)=O)C(=O)N[C@@H](CS)C(=O)N[C@@H](CCC(=O)O)C(=O)N[C@@H](Cc1c[nH]c2ccccc12)C(=O)N[C@@H](CCC(C)C)C(=O)N[C@@H](CCC(=O)O)C(=O)N[C@@H](CC(N)=O)C(=O)NCC(N)=O)[C@@H](C)O | > 30

The remaining lines, values ahead:

IC50 [µM] | Compound
< 0.5 | CC(=O)N[C@@H](CS)C(=O)N[C@@H](C)C(=O)N[C@@H](CC(=O)O)C(=O)N[C@@H](Cc1c[nH]c2ccccc12)C(=O)N[C@H](C(=O)N[C@@H](CS)C(=O)N[C@@H](Cc1ccc(O)cc1)C(=O)N[C@@H](Cc1c[nH]c2ccccc12)C(=O)N[C@@H](Cc1cnc[nH]1)C(=O)N[C@H](C(=O)N[C@@H](Cc1ccccc1)C(=O)NCC(=O)NCCC(=O)N[C@H](CCCCN)C(=O)O)[C@@H](C)O)C(C)C
> 1 | CC(=O)N[C@@H](CS)C(=O)N[C@@H](C)C(=O)N[C@@H](CC(=O)O)C(=O)N[C@@H](Cc1c[nH]c2ccccc12)C(=O)N[C@H](C(=O)N[C@@H](CS)C(=O)N[C@@H](Cc1ccc(O)cc1)C(=O)N[C@@H](Cc1cccc2ccccc12)C(=O)N[C@@H](Cc1cnc[nH]1)C(=O)NC(C)(C)C(=O)N[C@H](Cc1ccccc1)C(=O)NCC(N)=O)C(C)C
> 1 | CC(C)[C@H](NC(=O)[C@H](Cc1c[nH]c2ccccc12)NC(=O)[C@H](CC(=O)O)NC(=O)[C@H](C)NC(=O)[C@@H](N)CS)C(=O)N[C@@H](CS)C(=O)N[C@@H](Cc1ccc(O)cc1)C(=O)N[C@@H](Cc1cccc2ccccc12)C(=O)N[C@@H](Cc1cnc[nH]1)C(=O)N[C@H](C(=O)N[C@@H](Cc1ccccc1)C(=O)N(C)CC(=O)O)[C@@H](C)O
0.1 to 1 | CC(=O)N[C@H]1CCSC[C@@H](C(=O)N[C@@H](Cc2ccc(C(N)=O)cc2)C(=O)N[C@@H](Cc2ccc3ccccc3c2)C(=O)NC(C)(C)C(=O)N[C@@H](CCC(=O)O)C(=O)N[C@@H](CC(N)=O)C(=O)NCC(N)=O)NC(=O)[C@H](CCC(N)=O)NC(=O)[C@H](Cc2c[nH]c3ccccc23)NC(=O)[C@H]([C@@H](C)O)NC(=O)[C@H](CCC(N)=O)NC1=O
< 0.5 | CC(=O)N[C@@H](CS)C(=O)N[C@H](C(=O)N[C@H](C(=O)N[C@@H](Cc1c[nH]c2ccccc12)C(=O)N[C@@H](CCC(=O)O)C(=O)N[C@@H](CS)C(=O)N[C@@H](Cc1ccc(O)cc1)C(=O)N[C@@H](Cc1c[nH]c2ccccc12)C(=O)N[C@@H](Cc1cnc[nH]1)C(=O)N[C@@H](CCC(N)=O)C(=O)N[C@@H](Cc1ccccc1)C(=O)NCC(N)=O)[C@@H](C)O)[C@@H](C)O (Ac-CTTWECYWHQFG-NH2)
< 0.5 | CC(=O)N[C@@H](CS)C(=O)N[C@@H](CCC(N)=O)C(=O)N[C@H](C(=O)N[C@@H](Cc1c[nH]c2ccccc12)C(=O)N[C@@H](CCC(N)=O)C(=O)N[C@@H](CS)C(=O)N[C@@H](Cc1ccc(O)cc1)C(=O)N[C@@H](Cc1c[nH]c2ccccc12)C(=O)N[C@@H](CC1CCCC1)C(=O)N[C@@H](CCC(=O)O)C(=O)N[C@@H](CC(N)=O)C(=O)NCC(=O)NCCOCC(=O)N[C@H](CCCCN)C(N)=O)[C@@H](C)O
0.5 to 1 | C[C@@H](O)[C@H](NC(=O)[C@H](CC(=O)O)NC(=O)[C@@H](N)CS)C(=O)N[C@@H](Cc1c[nH]c2ccccc12)C(=O)N[C@@H](CCCCN)C(=O)N[C@@H](CS)C(=O)N[C@@H](Cc1ccc(O)cc1)C(=O)N[C@@H](Cc1c[nH]c2ccccc12)C(=O)N[C@@H](Cc1cnc[nH]1)C(=O)N[C@@H](CCCNC(=N)N)C(=O)N[C@@H](CCC(N)=O)C(=O)N[C@@H](CO)C(N)=O (H-CDTWKCYWHRQS-NH2)
1 to 10 | CC(=O)N[C@@H](CS)C(=O)N[C@@H](C)C(=O)N[C@@H](CC(=O)O)C(=O)N[C@@H](Cc1c[nH]c2ccccc12)C(=O)N[C@H](C(=O)N[C@@H](CS)C(=O)N[C@@H](Cc1ccc(O)cc1)C(=O)N[C@@H](Cc1c[nH]c2ccccc12)C(=O)N[C@@H](Cc1cnc[nH]1)C(=O)N[C@H](C(=O)N[C@@H](Cc1ccccc1)C(=O)NCC(=O)N[C@@H](CC(=O)O)C(=O)N[C@@H](CCCCNC(=O)COCC(=O)NCCCC[C@H](NC(=O)[C@H](CC(=O)O)NC(=O)CNC(=O)[C@H](Cc1ccccc1)NC(=O)[C@@H](NC(=O)[C@H](Cc1cnc[nH]1)NC(=O)[C@H](Cc1c[nH]c2ccccc12)NC(=O)[C@H](Cc1ccc(O)cc1)NC(=O)[C@H](CS)NC(=O)[C@@H](NC(=O)[C@H](Cc1c[nH]c2ccccc12)NC(=O)[C@H](CC(=O)O)NC(=O)[C@H](C)NC(=O)[C@H](CS)NC(C)=O)C(C)C)[C@@H](C)O)C(=O)O)C(=O)O)[C@@H](C)O)C(C)C
> 30 | CC(=O)N[C@@H](CS)C(=O)N[C@@H](CCC(N)=O)C(=O)N[C@H](C(=O)N[C@@H](Cc1c[nH]c2ccccc12)C(=O)N[C@@H](CCC(N)=O)C(=O)N[C@@H](CS)C(=O)N[C@H](Cc1ccc(O)cc1)C(=O)N[C@@H](Cc1c[nH]c2ccccc12)C(=O)N[C@@H](CCC(C)C)C(=O)N[C@@H](CCC(=O)O)C(=O)N[C@@H](CC(N)=O)C(=O)NCC(N)=O)[C@@H](C)O
